Assay results from publication PMC9234961 (Journal of Medicinal Chemistry, 2022).
Read-outs that look alike come from different tables or passages of the source.

Experiments:
kinases (468) [1] = target: kinases (468) (Homo sapiens, UniProt Q16832); settings: DDR2; 1000 nM
kinases (468) [2] = target: kinases (468) (Homo sapiens, UniProt Q86YV6); settings: MYLK4; 1000 nM
kinases (468) [3] = target: kinases (468) (Homo sapiens, UniProt Q8N4C8); settings: MINK (MINK1); 1000 nM
kinases (468) [4] = target: kinases (468) (Homo sapiens, UniProt P53350); settings: PLK1; 1000 nM
kinases (468) [5] = target: kinases (468) (Homo sapiens, UniProt Q8NEB9); settings: kinase VPS34 (Entrez PIK3C3); compound concentration 1000 nM
kinases (468) [6] = target: kinases (468) (Homo sapiens, UniProt P54753); settings: EPHB3; 1000 nM
kinases (468) [7] = target: kinases (468) (Homo sapiens, UniProt Q86Y07); settings: kinase VRK2 (Entrez VRK2); compound concentration 1000 nM
kinases (468) [8] = target: kinases (468) (Homo sapiens, UniProt Q8TDC3); settings: BRSK1; 1000 nM
kinases (468) [9] = target: kinases (468) (Homo sapiens, UniProt P10721, A829P); settings: KIT(A829P); 1000 nM
kinases (468) [10] = target: kinases (468) (Homo sapiens, UniProt Q15375); settings: EPHA7; 1000 nM
Chain of kinases (468) (Homo sapiens, UniProt Q15375) (Q15375 28-998): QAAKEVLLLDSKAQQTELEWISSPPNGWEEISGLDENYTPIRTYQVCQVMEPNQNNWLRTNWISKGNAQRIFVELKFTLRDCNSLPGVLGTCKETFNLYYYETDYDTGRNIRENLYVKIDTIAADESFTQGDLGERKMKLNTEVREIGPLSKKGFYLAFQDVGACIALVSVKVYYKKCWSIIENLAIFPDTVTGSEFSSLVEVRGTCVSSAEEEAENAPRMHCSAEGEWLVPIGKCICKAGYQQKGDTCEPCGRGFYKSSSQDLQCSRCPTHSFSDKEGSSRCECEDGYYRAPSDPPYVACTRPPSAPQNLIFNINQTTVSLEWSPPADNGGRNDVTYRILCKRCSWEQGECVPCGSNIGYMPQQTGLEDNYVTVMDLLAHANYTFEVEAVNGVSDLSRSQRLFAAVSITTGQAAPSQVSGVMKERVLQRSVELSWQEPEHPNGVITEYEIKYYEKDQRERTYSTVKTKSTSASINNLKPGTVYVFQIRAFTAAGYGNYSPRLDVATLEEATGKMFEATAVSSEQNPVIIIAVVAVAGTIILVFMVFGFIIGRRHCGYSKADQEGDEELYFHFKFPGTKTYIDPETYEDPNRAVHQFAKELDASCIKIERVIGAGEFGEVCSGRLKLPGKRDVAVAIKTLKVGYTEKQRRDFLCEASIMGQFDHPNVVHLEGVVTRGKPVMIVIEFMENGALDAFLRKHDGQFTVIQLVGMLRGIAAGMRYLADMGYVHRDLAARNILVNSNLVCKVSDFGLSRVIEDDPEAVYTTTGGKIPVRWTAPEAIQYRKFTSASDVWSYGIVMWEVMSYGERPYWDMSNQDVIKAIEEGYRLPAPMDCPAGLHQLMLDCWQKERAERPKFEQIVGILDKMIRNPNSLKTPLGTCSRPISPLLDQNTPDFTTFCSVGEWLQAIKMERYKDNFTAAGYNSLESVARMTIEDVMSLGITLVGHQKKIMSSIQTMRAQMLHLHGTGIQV

kinases (468) [11] = target: kinases (468) (Homo sapiens, UniProt Q9BX84); settings: kinase TRPM6 (Entrez TRPM6); compound concentration 1000 nM
kinases (468) [12] = target: kinases (468) (Homo sapiens, UniProt P57078); settings: kinase RIPK4 (Entrez RIPK4); compound concentration 1000 nM
kinases (468) [13] = target: kinases (468) (Homo sapiens, UniProt O76039); settings: CDKL5; 1000 nM
Chain of kinases (468) (Homo sapiens, UniProt O76039) (O76039 whole entry): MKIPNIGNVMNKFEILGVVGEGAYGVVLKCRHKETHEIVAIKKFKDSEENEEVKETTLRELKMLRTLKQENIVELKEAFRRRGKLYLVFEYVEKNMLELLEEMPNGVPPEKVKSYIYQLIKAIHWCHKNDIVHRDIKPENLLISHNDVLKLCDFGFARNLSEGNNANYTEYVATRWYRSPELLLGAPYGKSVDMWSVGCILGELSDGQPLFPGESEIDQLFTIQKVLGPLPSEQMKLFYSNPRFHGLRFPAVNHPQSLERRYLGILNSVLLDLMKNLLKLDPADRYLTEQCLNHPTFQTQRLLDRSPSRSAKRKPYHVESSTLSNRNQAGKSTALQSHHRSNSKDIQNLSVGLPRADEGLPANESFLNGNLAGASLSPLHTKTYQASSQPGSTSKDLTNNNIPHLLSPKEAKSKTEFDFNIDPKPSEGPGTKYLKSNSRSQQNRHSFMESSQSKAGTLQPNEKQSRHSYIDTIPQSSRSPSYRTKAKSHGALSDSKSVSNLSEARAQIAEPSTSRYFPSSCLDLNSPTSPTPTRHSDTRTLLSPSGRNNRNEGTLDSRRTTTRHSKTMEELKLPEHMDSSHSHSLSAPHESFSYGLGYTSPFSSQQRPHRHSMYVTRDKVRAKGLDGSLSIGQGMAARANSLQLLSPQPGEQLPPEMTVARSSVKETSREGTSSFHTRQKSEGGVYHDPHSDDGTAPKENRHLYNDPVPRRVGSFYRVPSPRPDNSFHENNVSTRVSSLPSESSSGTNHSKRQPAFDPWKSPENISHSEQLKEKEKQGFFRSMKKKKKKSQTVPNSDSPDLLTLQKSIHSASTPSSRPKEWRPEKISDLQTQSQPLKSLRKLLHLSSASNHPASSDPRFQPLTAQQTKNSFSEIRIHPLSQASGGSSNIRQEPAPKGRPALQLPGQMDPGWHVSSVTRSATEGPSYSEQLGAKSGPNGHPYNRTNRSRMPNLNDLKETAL

kinases (468) [14] = target: kinases (468) (Homo sapiens, UniProt O94921); settings: PFTK1 (CDK14); 1000 nM
kinases (468) [15] = target: kinases (468) (Homo sapiens, UniProt Q13177); settings: PAK2; 1000 nM
kinases (468) [16] = target: kinases (468) (Homo sapiens, UniProt Q99640); settings: PKMYT1; 1000 nM
kinases (468) [17] = target: kinases (468) (Homo sapiens, UniProt P27448); settings: MARK3; 1000 nM
kinases (468) [18] = target: kinases (468) (Homo sapiens, UniProt P00519, Q252H); settings: 1000 nM
kinases (468) [19] = target: kinases (468) (Homo sapiens, UniProt Q96GD4); settings: AURKB; 1000 nM
Chain of kinases (468) (Homo sapiens, UniProt Q96GD4) (Q96GD4 whole entry): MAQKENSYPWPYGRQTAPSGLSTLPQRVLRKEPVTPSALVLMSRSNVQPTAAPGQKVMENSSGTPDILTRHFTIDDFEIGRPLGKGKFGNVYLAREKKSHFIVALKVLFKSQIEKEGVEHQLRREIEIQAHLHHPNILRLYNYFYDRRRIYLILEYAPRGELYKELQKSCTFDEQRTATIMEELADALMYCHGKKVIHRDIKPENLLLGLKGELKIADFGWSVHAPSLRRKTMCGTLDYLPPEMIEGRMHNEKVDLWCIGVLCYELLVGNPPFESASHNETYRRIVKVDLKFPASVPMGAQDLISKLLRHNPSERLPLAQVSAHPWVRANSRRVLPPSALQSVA

kinases (468) [20] = target: kinases (468) (Homo sapiens, UniProt Q13131); settings: AMPK-alpha1 (PRKAA1); 1000 nM
kinases (468) [21] = target: kinases (468) (Homo sapiens, UniProt P42336); settings: PIK3CA; 1000 nM
kinases (468) [22] = target: kinases (468) (Homo sapiens, UniProt Q96Q40); settings: PFTAIRE2 (CDK15); 1000 nM
kinases (468) [23] = target: kinases (468) (Homo sapiens, UniProt O60674); settings: JAK2(JH1domain-catalytic); 1000 nM
kinases (468) [24] = target: kinases (468) (Homo sapiens, UniProt Q96NX5); settings: CAMK1G; 1000 nM
kinases (468) [25] = target: kinases (468) (Homo sapiens, UniProt Q15569); settings: kinase TESK1 (Entrez TESK1); compound concentration 1000 nM
kinases (468) [26] = target: kinases (468) (Homo sapiens, UniProt Q16539); settings: p38-alpha (MAPK14); 1000 nM
kinases (468) [27] = target: kinases (468) (Homo sapiens, UniProt P08581, Y1235D); settings: MET(Y1235D); 1000 nM
Chain of kinases (468) (Homo sapiens, UniProt P08581, Y1235D) (P08581 25-1390 Y1235D): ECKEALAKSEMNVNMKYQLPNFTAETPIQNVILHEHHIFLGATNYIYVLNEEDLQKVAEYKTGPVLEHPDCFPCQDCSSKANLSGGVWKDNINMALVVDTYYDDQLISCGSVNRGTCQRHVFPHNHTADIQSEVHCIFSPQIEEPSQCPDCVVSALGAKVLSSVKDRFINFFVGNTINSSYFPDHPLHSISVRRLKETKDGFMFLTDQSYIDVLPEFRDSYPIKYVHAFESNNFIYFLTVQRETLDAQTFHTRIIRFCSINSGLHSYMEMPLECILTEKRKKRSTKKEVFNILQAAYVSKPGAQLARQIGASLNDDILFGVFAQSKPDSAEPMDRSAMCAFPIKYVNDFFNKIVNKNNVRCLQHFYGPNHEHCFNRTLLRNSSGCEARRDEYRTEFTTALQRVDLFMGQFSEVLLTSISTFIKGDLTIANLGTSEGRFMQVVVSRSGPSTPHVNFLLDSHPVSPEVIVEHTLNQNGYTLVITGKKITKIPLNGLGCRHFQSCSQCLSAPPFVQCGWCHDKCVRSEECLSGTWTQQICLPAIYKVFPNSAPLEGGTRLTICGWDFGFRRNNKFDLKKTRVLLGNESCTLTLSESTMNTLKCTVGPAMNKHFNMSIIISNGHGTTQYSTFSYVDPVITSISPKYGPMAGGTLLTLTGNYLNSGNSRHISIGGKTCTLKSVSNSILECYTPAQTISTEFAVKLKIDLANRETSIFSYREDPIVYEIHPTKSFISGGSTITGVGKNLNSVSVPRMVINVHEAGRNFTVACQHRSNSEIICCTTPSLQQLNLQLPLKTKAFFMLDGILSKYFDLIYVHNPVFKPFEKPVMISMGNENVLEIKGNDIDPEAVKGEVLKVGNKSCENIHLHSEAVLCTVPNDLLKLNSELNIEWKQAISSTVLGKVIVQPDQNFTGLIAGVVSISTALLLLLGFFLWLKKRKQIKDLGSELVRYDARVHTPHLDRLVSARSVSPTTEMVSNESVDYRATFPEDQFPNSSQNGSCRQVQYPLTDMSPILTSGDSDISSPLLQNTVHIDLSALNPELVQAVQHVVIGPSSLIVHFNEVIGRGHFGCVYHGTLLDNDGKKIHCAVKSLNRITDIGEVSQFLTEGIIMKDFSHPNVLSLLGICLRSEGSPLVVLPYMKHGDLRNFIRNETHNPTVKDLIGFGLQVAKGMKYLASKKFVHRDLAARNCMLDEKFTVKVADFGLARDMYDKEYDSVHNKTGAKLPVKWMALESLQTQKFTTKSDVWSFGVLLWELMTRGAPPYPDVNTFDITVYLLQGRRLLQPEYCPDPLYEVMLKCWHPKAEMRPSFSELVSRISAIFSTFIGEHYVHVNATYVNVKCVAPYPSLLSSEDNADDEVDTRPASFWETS

kinases (468) [28] = target: kinases (468) (Homo sapiens, UniProt Q96J92); settings: kinase WNK4 (Entrez WNK4); compound concentration 1000 nM
kinases (468) [29] = target: kinases (468) (Homo sapiens, UniProt P10721, L576P); settings: KIT(L576P); 1000 nM
kinases (468) [30] = target: kinases (468) (Homo sapiens, UniProt Q15349); settings: compound concentration 1000 nM
Chain of kinases (468) (Homo sapiens, UniProt Q15349) (Q15349 whole entry): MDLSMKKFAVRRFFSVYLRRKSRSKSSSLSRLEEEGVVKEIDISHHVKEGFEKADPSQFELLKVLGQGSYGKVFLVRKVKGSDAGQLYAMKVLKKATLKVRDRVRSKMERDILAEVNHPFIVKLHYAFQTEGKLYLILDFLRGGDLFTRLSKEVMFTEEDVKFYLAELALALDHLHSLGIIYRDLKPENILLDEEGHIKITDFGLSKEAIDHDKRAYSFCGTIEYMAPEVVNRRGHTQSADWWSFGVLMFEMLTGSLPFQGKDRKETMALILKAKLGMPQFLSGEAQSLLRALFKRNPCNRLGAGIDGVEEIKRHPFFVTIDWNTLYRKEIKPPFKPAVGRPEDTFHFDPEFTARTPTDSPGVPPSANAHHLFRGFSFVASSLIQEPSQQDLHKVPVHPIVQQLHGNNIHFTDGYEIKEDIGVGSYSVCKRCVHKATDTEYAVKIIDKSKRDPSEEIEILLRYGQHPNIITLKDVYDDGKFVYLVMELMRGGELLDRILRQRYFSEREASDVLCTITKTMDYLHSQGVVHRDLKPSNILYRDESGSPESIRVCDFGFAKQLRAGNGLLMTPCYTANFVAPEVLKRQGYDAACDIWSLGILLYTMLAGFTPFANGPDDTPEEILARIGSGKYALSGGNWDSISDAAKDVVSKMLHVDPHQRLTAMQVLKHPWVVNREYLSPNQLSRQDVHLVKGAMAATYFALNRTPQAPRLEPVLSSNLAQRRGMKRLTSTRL

kinases (468) [31] = target: kinases (468) (Homo sapiens, UniProt Q8NG66); settings: NEK11; 1000 nM
Chain of kinases (468) (Homo sapiens, UniProt Q8NG66) (Q8NG66 whole entry): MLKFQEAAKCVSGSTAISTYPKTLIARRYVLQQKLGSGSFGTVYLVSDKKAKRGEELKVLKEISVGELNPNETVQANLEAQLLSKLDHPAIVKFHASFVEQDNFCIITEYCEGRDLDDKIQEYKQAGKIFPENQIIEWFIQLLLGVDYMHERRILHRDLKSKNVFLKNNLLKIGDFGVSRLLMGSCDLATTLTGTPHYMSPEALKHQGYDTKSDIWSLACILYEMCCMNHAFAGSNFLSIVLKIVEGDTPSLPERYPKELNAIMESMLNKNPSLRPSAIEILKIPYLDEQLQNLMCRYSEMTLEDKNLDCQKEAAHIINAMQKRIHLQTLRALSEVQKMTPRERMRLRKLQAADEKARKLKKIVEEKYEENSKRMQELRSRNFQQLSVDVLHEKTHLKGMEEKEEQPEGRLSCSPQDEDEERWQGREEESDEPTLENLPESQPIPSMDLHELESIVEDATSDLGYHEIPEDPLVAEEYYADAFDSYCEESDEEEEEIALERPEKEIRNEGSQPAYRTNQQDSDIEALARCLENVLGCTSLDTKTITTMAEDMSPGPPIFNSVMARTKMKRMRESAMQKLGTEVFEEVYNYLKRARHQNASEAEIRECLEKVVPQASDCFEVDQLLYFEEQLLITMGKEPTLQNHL

kinases (468) [32] = target: kinases (468) (Homo sapiens, UniProt Q86Z02); settings: HIPK1; 1000 nM
kinases (468) [33] = target: kinases (468) (Homo sapiens, UniProt P31751); settings: AKT2; 1000 nM
kinases (468) [34] = target: kinases (468) (Homo sapiens, UniProt P49760); settings: CLK2; 1000 nM

Which “Percent Control” value (kinases (468) [1]) does the source give for `C[C@H]1C[C@@H](O)CN(c2ncc(Cl)c(Nc3ccc4c(c3)c3c(c(=O)n4C)OCC(F)(F)[C@H](C4CC4)N3)n2)C1` [CCT373566_9A] here?
Its value is 100%.

What about the “Percent Control” value (kinases (468) [2]) of the same compound?
Its value is 100%.

And the “Percent Control” value (kinases (468) [3])?
The value was 87%.

What about the “Percent Control” value (kinases (468) [4]) of the same compound?
Its value is 83%.

What about the “Percent Control” value (kinases (468) [5]) of the same compound?
Its value is 80%.

What about the “Percent Control” value (kinases (468) [6]) of the same compound?
The value was 100%.

What about the “Percent Control” value (kinases (468) [7]) of the same compound?
The value was 89%.

What about the “Percent Control” value (kinases (468) [8]) of the same compound?
Its value is 96%.

And the “Percent Control” value (kinases (468) [9])?
Its value is 100%.

What about the “Percent Control” value (kinases (468) [10]) of the same compound?
The value was 100%.

And the “Percent Control” value (kinases (468) [11])?
Its value is 95%.

And the “Percent Control” value (kinases (468) [12])?
Its value is 100%.

And the “Percent Control” value (kinases (468) [13])?
Its value is 96%.

What about the “Percent Control” value (kinases (468) [14]) of the same compound?
Its value is 95%.

What about the “Percent Control” value (kinases (468) [15]) of the same compound?
The value was 100%.

What about the “Percent Control” value (kinases (468) [16]) of the same compound?
Its value is 100%.

What about the “Percent Control” value (kinases (468) [17]) of the same compound?
The value was 89%.

And the “Percent Control” value (kinases (468) [18]; ABL1(Q252H)-nonphosphorylated)?
The value was 94%.

And the “Percent Control” value (kinases (468) [18]; ABL1(Q252H)-phosphorylated)?
The value was 98%.

And the “Percent Control” value (kinases (468) [19])?
Its value is 92%.

And the “Percent Control” value (kinases (468) [20])?
Its value is 100%.

What about the “Percent Control” value (kinases (468) [21]) of the same compound?
Its value is 100%.

And the “Percent Control” value (kinases (468) [22])?
The value was 98%.

And the “Percent Control” value (kinases (468) [23])?
The value was 97%.

What about the “Percent Control” value (kinases (468) [24]) of the same compound?
The value was 96%.

What about the “Percent Control” value (kinases (468) [25]) of the same compound?
The value was 100%.

What about the “Percent Control” value (kinases (468) [26]) of the same compound?
Its value is 96%.

What about the “Percent Control” value (kinases (468) [27]) of the same compound?
The value was 99%.

And the “Percent Control” value (kinases (468) [28])?
The value was 42%.

What about the “Percent Control” value (kinases (468) [29]) of the same compound?
Its value is 100%.

And the “Percent Control” value (kinases (468) [30]; kinase RSK3(Kin.Dom.1-N-terminal) (Entrez RPS6KA2))?
The value was 100%.

And the “Percent Control” value (kinases (468) [30]; kinase RSK3(Kin.Dom.2-C-terminal) (Entrez RPS6KA2))?
Its value is 83%.

What about the “Percent Control” value (kinases (468) [31]) of the same compound?
Its value is 95%.

And the “Percent Control” value (kinases (468) [32])?
The value was 98%.

What about the “Percent Control” value (kinases (468) [33]) of the same compound?
The value was 100%.

What about the “Percent Control” value (kinases (468) [34]) of the same compound?
Its value is 68%.
